Consider twelve compounds from patent US12030879B2, “Sulfonyl acetamides as NLRP3 inhibitors” (Inflazome Limited, priority 2018, dated 2024).

The IC50 is the concentration that inhibits the measured activity by half. The low end stands for greater potency in that assay, the high end for weaker potency in that assay.

The target of the assay is T1, NLRP3 (Homo sapiens, UniProt Q96P20).
T1 construct: Seed THP-1 cells (25,000 cells/well) containing 1.0 μg/ml LPS in 40 μl of RPMI medium; host or cells: THP-1 cells
T1 sequence (Q96P20 whole entry): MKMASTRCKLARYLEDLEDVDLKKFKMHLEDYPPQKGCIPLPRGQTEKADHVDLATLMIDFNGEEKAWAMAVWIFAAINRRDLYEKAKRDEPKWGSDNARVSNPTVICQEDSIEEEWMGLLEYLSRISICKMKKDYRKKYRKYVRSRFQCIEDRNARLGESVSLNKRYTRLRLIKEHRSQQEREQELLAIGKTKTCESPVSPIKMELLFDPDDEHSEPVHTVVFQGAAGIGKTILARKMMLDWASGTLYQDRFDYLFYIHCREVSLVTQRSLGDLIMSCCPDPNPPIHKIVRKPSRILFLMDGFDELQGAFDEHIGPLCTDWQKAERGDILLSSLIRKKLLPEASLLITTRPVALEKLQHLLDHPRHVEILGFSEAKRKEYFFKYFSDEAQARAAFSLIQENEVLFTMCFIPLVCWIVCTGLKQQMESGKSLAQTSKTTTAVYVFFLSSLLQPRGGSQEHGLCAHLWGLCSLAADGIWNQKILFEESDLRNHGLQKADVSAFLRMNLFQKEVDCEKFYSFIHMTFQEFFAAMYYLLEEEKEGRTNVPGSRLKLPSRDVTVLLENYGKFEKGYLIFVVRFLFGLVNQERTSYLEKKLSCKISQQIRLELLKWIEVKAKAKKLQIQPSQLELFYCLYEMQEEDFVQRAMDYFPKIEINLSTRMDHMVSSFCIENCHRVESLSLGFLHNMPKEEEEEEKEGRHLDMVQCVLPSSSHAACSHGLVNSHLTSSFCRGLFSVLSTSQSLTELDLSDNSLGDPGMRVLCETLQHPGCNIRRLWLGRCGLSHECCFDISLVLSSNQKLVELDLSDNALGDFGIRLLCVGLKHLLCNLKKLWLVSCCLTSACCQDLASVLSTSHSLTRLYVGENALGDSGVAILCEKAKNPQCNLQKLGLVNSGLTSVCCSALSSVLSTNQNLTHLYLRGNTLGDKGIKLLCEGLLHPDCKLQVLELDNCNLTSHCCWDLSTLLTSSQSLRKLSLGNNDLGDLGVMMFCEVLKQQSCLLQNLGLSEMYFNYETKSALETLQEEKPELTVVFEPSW
The assay can be described thus: THP-1 cells pyroptosis assay. The class given is cell-based. The conditions noted are these: LPS 1 μg/ml, compound 3 hrs, nigericin 5 μM 1 hr, resazurin readout. On the procedure:
THP-1 cells (ATCC #TIB-202) were grown in RPMI containing L-glutamine (Gibco #11835) supplemented with 1 mM sodium pyruvate (Sigma #S8636) and penicillin (100 units/ml)/streptomycin (0.1 mg/ml) (Sigma #P4333) in 10% Fetal Bovine Serum (FBS) (Sigma #F0804). The cells were routinely passaged and grown to confluency (10^6 cells/ml). On the day of the experiment, THP-1 cells were harvested and resuspended into RPMI medium (without FBS). The cells were then counted and viability (>90%) checked by Trypan blue (Sigma #T8154). Appropriate dilutions were made to give a concentration of 625,000 cells/ml. To this diluted cell solution was added LPS (Sigma #L4524) to give a 1 μg/ml Final Assay Concentration (FAC). 40 μl of the final preparation was aliquoted into each well of a 96-well plate. The plate thus prepared was used for compound screening.
The following method step-by-step assay was followed for compound screening. • 1. Seed THP-1 cells (25,000 cells/well) containing 1.0 μg/ml LPS in 40 μl of RPMI medium (without FBS) in 96-well, black walled, clear bottom cell culture plates coated with poly-D-lysine (VWR #734-0317) • 2. Add 5 μl compound (8 points half-log dilution, with 10 μM top dose) or vehicle (DMSO 0.1% FAC) to the appropriate wells • 3. Incubate for 3 hrs at 37° C., 5% CO2 • 4. Add 5 μl nigericin (Sigma #N7143) (FAC 5 μM) to all wells • 5. Incubate for 1 hr at 37° C., 5% CO2 • 6. At the end of the incubation period, spin plates at 300×g for 3 mins and remove supernatant • 7. Then add 50 μl of resazurin (Sigma #R7017)(FAC 100 μM resazurin in RPMI medium without FBS) and incubate plates for a further 1-2 hrs at 37° C. and 5% CO2 • 8. Plates were read in an Envision reader at Ex 560 nm and Em 590 nm • 9. IC50 data is fitted to a non-linear regression equation (log inhibitor vs response-variable slope 4-parameters) 96-well Plate Map
Compound `COc1cc(-c2cc(F)cc(C(C)C)c2CC(=O)NS(=O)(=O)c2ccc(F)c(C(C)(C)O)c2)ccn1` [Example 79, 2-(4-Fluoro-2-isopropyl-6-(2-methoxypyridin-4-yl)phenyl)-N-((4-fluoro-3-(2-hydroxypropan-2-yl)phenyl)sulfonyl)acetamide] yielded an IC50 of at most 1 µM.
The value for `COc1cc(-c2cc(F)cc(C(C)C)c2CC(=O)NS(=O)(=O)c2ccc(C(C)(C)O)cc2)ccn1` [Example 80, 2-(4-Fluoro-2-isopropyl-6-(2-methoxypyridin-4-yl)phenyl)-N-((4-(2-hydroxypropan-2-yl)phenyl)sulfonyl)acetamide] was at most 5 µM; that for `COc1cc(-c2cc(F)cc(C(C)C)c2CC(=O)NS(=O)(=O)c2cccc(C(C)(C)C#N)c2)ccn1` [Example 81, N-((3-(2-Cyanopropan-2-yl)phenyl)sulfonyl)-2-(4-fluoro-2-isopropyl-6-(2-methoxypyridin-4-yl)phenyl)acetamide] was at most 5 µM; that for `Cc1cc(C(C)(C)O)ccc1S(=O)(=O)NC(=O)Cc1c(-c2cccnc2)cc(F)cc1C(C)C` [Example 82, 2-(4-Fluoro-2-isopropyl-6-(pyridin-3-yl)phenyl)-N-((4-(2-hydroxypropan-2-yl)-2-methylphenyl)sulfonyl)acetamide] was at most 5 µM.
As to `COc1cc(-c2cc(F)cc(C(C)C)c2CC(=O)NS(=O)(=O)c2ccc(C(C)(C)N)c(F)c2)ccn1` [Example 83, N-((4-(2-Aminopropan-2-yl)-3-fluorophenyl)sulfonyl)-2-(4-fluoro-2-isopropyl-6-(2-methoxypyridin-4-yl)phenyl)acetamide], the IC50 was at most 5 µM.
As for `COc1cc(-c2cc(F)cc(C(C)C)c2CC(=O)NS(=O)(=O)c2ccc(C(C)(C)O)c(F)c2)ccn1` [Example 84, 2-(4-Fluoro-2-isopropyl-6-(2-methoxypyridin-4-yl)phenyl)-N-((3-fluoro-4-(2-hydroxypropan-2-yl)phenyl)sulfonyl)acetamide], the figure is at most 1 µM.
Compound `COc1cc(-c2cc(F)cc(C(C)(C)F)c2CC(=O)NS(=O)(=O)c2ccc(C(C)(C)O)cc2C)ccn1` [Example 86, 2-(4-Fluoro-2-(2-fluoropropan-2-yl)-6-(2-methoxypyridin-4-yl)phenyl)-N-((4-(2-hydroxypropan-2-yl)-2-methylphenyl)sulfonyl)acetamide] gave an IC50 of at most 5 µM.
The compound `COc1cc(-c2cc(F)cc(C(C)(C)F)c2CC(=O)NS(=O)(=O)c2cc(C(C)(C)O)cs2)ccn1` [Example 87, 2-(4-Fluoro-2-(2-fluoropropan-2-yl)-6-(2-methoxypyridin-4-yl)phenyl)-N-((4-(2-hydroxypropan-2-yl)thiophen-2-yl)sulfonyl)acetamide] registered an IC50 of at most 0.5 µM.
As for `COc1cc(-c2cc(F)cc(C(C)C)c2CC(=O)NS(=O)(=O)c2ccc(C(C)(C)NC(C)=O)c(F)c2)ccn1` [Example 88, N-((4-(2-Acetamidopropan-2-yl)-3-fluorophenyl)sulfonyl)-2-(4-fluoro-2-isopropyl-6-(2-methoxypyridin-4-yl)phenyl)acetamide], the figure is at most 5 µM.
As for `COc1cc(-c2cc(F)cc(C(C)C)c2CC(=O)NS(=O)(=O)c2cccc(C(C)(C)O)c2)ccn1` [Example 89, 2-(4-Fluoro-2-isopropyl-6-(2-methoxypyridin-4-yl)phenyl)-N-((3-(2-hydroxypropan-2-yl)phenyl)sulfonyl)acetamide], the concentration for half-maximal inhibition (IC50) is at most 1 µM.
For the compound `COc1cc(-c2cc(F)cc(C(C)C)c2CC(=O)NS(=O)(=O)c2ccc(C(C)(C)NC(=O)OC(C)(C)C)c(F)c2)ccn1` [Example 90, tert-Butyl (2-(2-fluoro-4-(N-(2-(4-fluoro-2-isopropyl-6-(2-methoxypyridin-4-yl)phenyl)acetyl)sulfamoyl)phenyl)propan-2-yl)carbamate], the IC50 is at most 0.5 µM.
The compound `COc1cc(-c2cc(F)cc(C(C)C)c2CC(=O)NS(=O)(=O)c2ccc(C(C)(C)N(C)C)c(F)c2)ccn1` [Example 91, N-((4-(2-(Dimethylamino)propan-2-yl)-3-fluorophenyl)sulfonyl)-2-(4-fluoro-2-isopropyl-6-(2-methoxypyridin-4-yl)phenyl)acetamide] gave a half-maximal inhibitory concentration (IC50) of at most 5 µM.
